Data set [1] in a line: Pharmacokinetic evaluation in beagles after intravenous injection and oral administration. Type of data set: in vivo. The settings on record: 0.1 mg/kg. The procedure: The test sample (Complex (IA) prepared from example 2 of the invention) was dissolved in normal saline (100%) to get a solution at a concentration of 0.04 mg/mL, which was administered by i.v; the same test sample was suspended in 0.5% HPMC to get a suspension at a concentration of 0.02 mg/mL, 0.10 mg/mL, 0.50 mg/mL, 2.00 mg/mL, which was administered by gavage. The beagles were grouped randomly, each dosage group had 6 beagles, half male and half female, which were fasted for 12 h before administered, free drank. After administration of 4 h, beagles uniform ate. The single oral administration group was grouped to 4 dosage groups, which were administered the test sample suspension by gavage respectively, the dosage respectively was 0.1, 0.5, 2.5 and 10 mg/kg, and the volume of the suspension was 5 mL/kg. The blood samples were collected before administration of 0 h, and after administration of 0.25, 0.5, 1.0, 2.0, 4.0, 6.0, 8.0, 10, 12 and 48 h from lateral small saphenous vein or medial head vein of forelimb, which were placed into EDTA-K2 anticoagulative tubes. The i.v group had one dosage group, the test sample solution was administered by i.v at a dosage of 0.1 mg/kg, and the volume of the solution was 2.5 mL/kg. The blood samples were collected before administration of 0 h, and after administration of 5 min, 15 min, 0.5, 1.0, 2.0, 4.0, 6.0, 8.0, 10, 12 and 48 h from lateral small saphenous vein or medial head vein of forelimb, which were placed into EDTA-K2 anticoagulative tubes. The blood samples were centrifuged for 2 min at 11000 rpm, the plasma samples were isolated and stored at −70° C.±10° C.
The concentration of the test sample in plasma was analyzed by the LC-MS/MS method, the pharmacokinetic parameters were calculaged by the […] model method using WinNonlin 6.3 software, and drug-time curve was plotted.
The LC/MS/MS system comprised Agilent 1200 series vacuum […], binary pumps, well-plate autosampler, thermostatted column compartment, the API 4000 QTRAP Triple Quadrupole Mass Spectrometer with an electrosprayionization (ESI) source. Quantitative analysis was carried out using MRM mode.
A Waters Xbridge-C18, 2.1×30 mm, […] column was used for the analysis, 5 μL of the sample was injected. Analysis condition: The mobile phase was […] ammonium formate+0.1% formic acid in water (A) and 2 mM ammonium formate+0.1% formic acidin methanol (B). The flow rate was 0.4 mL/min And the gradient of Mobile phase was in the Table E.

Another data set has as its target T1, human SGLT-2 (Homo sapiens, UniProt P31639).
T1 construct: expressed in transfected cells; host or cells: CHO cells (Flp-in CHO)
T1 sequence (P31639 1-672): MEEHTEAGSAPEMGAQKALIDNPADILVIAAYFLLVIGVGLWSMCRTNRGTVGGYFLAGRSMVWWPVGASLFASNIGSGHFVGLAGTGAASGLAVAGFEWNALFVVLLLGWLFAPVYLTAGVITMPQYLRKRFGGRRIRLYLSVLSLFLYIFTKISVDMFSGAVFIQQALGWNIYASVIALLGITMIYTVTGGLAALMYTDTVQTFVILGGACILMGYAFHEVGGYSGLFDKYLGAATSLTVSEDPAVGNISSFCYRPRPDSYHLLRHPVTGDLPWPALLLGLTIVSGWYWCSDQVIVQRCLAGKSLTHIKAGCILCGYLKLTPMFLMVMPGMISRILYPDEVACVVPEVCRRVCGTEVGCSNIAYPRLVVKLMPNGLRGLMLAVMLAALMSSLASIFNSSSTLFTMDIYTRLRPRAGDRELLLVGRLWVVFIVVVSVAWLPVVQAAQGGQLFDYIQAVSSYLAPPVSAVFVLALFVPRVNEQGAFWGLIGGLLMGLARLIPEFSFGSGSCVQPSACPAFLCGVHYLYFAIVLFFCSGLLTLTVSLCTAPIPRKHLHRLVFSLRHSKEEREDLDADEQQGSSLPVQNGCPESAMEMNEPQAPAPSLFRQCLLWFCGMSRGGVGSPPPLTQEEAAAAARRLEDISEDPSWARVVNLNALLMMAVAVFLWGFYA
The experiment in a line: Inhibitory activity against SGLT-2, [14C]-AMG uptake in CHO cells. Type of data set: cell-based. The procedure:
The following method was used for detecting inhibitory activity of the compounds of the invention against SGLT-1 and SGLT-2.
3×10^4 of FIP-in CHO cells transfected Mock and CHO cells expressing human SGLT-1/SGLT-2 gene were seeded into a 96-well cell culture plate; the cells were incubated for 12 hours, and then to each well was added 150 μL of Na-free buffer to wash the cells once; and then to each well were added 50 μL of Na buffer containing the compound at different concentrations and 0.5 μM [^14C]-AMG, and the plate was incubated in a incubator at 37° C. for 1 hour, the reaction was terminated by adding 150 μL of pre-cooled Na-free buffer; the cells were further washed with Na-free buffer 3 times and the residual liquid was removed; to each well was added 20 μL of pre-cooled NaOH ([…]), the plate was vibrated at 900 rpm for 5 min; and then to each well was added 80 μL of scintillation solution, the plate was vibrated at 600 rpm for 5 min; the plate was analyzed on liquid scintillation counter.

[2] abbreviates: both sexes, beagle, dog, plasma, iv, i.v.
The mark [3] stands for this setting: both sexes, beagle, dog, plasma, po, p.o.

The text below walks through data of US10555930B2, “Complex of a glucopyranosyl derivative and preparation method and use thereof” (SUNSHINE LAKE PHARMA CO., LTD., priority 2015, dated 2020).

As a reminder, the AUC(0-t) is the area under the concentration-time curve up to a stated or last time point. Read a high AUC(0-t) as high exposure. As a reminder, the Cmax is the maximum level reached in the sampled fluid or tissue. The term half-life denotes how long it takes for the measured level to halve. A low value points to rapid decline. One may read the bioavailability as dose-corrected exposure relative to a reference, in per cent.

In data set [1] (setting [2]), `CCOc1ccc(Cc2cc([C@]34OC[C@]([C@@H](C)O)(O3)[C@@H](O)[C@H](O)[C@H]4O)ccc2Cl)cc1` [Complex (IA), Complex (IA) of (1R,2S,3S,4R,5S)-5-(4-chloro-3-(4-ethoxybenzyl)phenyl)-1-((1R)-1-hydroxyethyl)-6,8-dioxabicyclo[3.2.1]octane-2,3,4-triol (I-n) and L-pyroglutamic acid] had an AUC(0-t) of 617 ng·h/mL, a maximum concentration (Cmax) of 148 ng/mL and a half-life of 8.97 h. The compound further gave a half-life in data set [1] (both sexes, beagle, dog, plasma, oral, p.o) of 8.88 h. Also, the bioavailability in data set [1] (both sexes, beagle, dog, plasma, po, p.o, read-out: F (oral bioavailability)) is 97.5%. For the same compound, in data set [1] (setting [3]), the AUC(0-t) is 602 ng·h/mL and the highest concentration (Cmax) amounted to 66.2 ng/mL. Besides, the “F (oral bioavailability)” value in data set [1] (p.o) amounted to 97.57%. Besides, the SGLT-2 inhibitory activity entry at human SGLT-2 (CHO cells expressing human SGLT-2, [14C]-AMG) was “has SGLT-2 and SGLT-1 inhibitory activity”. Also, the “inhibitory activity to SGLT-2 compared with SGLT-1” value against human SGLT-2 (SGLT-2 versus SGLT-1) is listed as “the inhibitory activity to SGLT-2 is much more stronger than that to SGLT-1”.
